Measurements taken from patent US12134620B2 (ARAXES PHARMA LLC, priority 2018, dated 2024).

biological target: T1, KRAS G12C 1-169, his-tagged protein, GDP-loaded (Homo sapiens, UniProt P01116, G12C); test: Biochemical assay: covalent modification of KRAS G12C, analysed by mass spectrometry (RapidFire/TOF or Q-Exactive); format: binding; settings: Modification activity, modification percentage from MS peak intensities
T1 construct: KRAS G12C 1-169, his-tagged protein, GDP-loaded; His tag
Experimental: Test compounds are prepared as 10 mM stock solutions in DMSO (Fisher cat. #BP-231-100). KRAS G12C 1-169, his-tagged protein, GDP-loaded is diluted to 2 μM or 0.5 μM in buffer (20 mM Hepes, 150 mM NaCl, 1 mM MgCl2). Compounds are tested for activity as follows:
Compounds are diluted to 50× final test concentration in DMSO in 96-well storage plates. Compound stock solutions are vortexed before use and observed carefully for any sign of precipitation. Dilutions are as follow: • For 32 μM final compound concentration, compounds are diluted to 1600 μM (3 μL 10 mM compound stock+15.75 μL DMSO and mixed well by pipetting. • For 8 μM final compound concentration, compounds are diluted to 400 μM (2 μL 10 mM compound stock+48 μL DMSO) and mixed well by pipetting. 49 μL of the stock protein solution is added to each well of a 96-well PCR plate (Fisher cat #1423027). 1 μl of the diluted 50× compounds are added to appropriate wells in the PCR plate using 12-channel pipettor. Reactions are mixed carefully and thoroughly by pipetting up/down with a 200 μL multi-channel pipettor. The plate is sealed well with aluminum plate seal, and protein and compound are allowed to react for a desired amount of time. 5 μL of 2% formic acid (Fisher cat #A117) in de-ionized H2O is then added to each well followed by mixing with a pipette to quench the reaction. The plate is then resealed with aluminum seal and stored frozen on dry ice until analyzed as described below.
The above described assays are analyzed by mass spectrometry according to one of the following two procedures:
The MS instrument is set to positive polarity, 2 GHz resolution, and low mass (1700) mode and allowed to equilibrate for 30 minutes. The instrument is then calibrated, switched to acquisition mode and the appropriate method loaded.
After another 30 minute equilibration time, a blank batch (i.e., buffer) is run to ensure equipment is operating properly. The samples are thawed at 37° C. for 10 minutes, briefly centrifuged, and transfer to the bench top. Wells A1 and H12 are spiked with 1 μL 500 μM internal standard peptide, and the plates centrifuged at 2000×g for 5 minutes. The method is then run and masses of each individual well recorded.
The masses (for which integration data is desired) for each well are pasted into the platemap and exported from the analysis. Masses for the internal standards are exported as well. The data at 50 ppm is extracted for the +19 charge state, and identity of well A1 is assigned using the internal standard spike and integrated. Peak data is exported as a TOF list and the above steps are repeated individually, for the +20, +21, +22, +23, +24, and +25 charge states.
The masses and peak intensities of KRAS G12C protein species are measured using a Dionex RSLCnano system (Thermo Scientific) connected to a Q Exactive Plus mass spectrometer (Thermo Scientific).
20 μL of sample is each loaded onto a Aeris™ 3.6 μm WIDEPORE C4 200 Å, LC Column 50×2.1 mm column maintained at 40° C. at a flow rate of 600 μL/min with 80% Solvent A (0.1% formic acid in H2O) and 20% Solvent B (0.1% formic acid in acetonitrile). The liquid chromatography conditions are 20% solvent B for 1 minute, 20% to 60% solvent B for 1.5 minutes, 60% to 90% solvent for 0.5 minute, 90% solvent B for 0.2 minute, 90% to 20% solvent B for 0.2 minute, and then equilibrated for 1.6 minute before the following sample injection. The flow rate is maintained at 600 μL/min throughout the sample analysis.
The mass spectrometer is operated in profile mode at a resolution of 17500, 5 microscans, using 50 msec max injection time and an AGC target of 1×10^6, and a full mass range from 800-1850 m/z is recorded. The intact protein mode is applied for optimal ion transfer and maximum sensitivity. The ionization method is electrospray ionization, which used a spray voltage of 4 kV, sheath gas flow set to 50 AU, auxiliary gas flow set to 10 AU and sweep gas flow set to 1 AU. […]

| SMILES | Binding % |
| --- | --- |
| C=CC(=O)N1CC2(CCN(c3nc(OC[C@@H]4CCCN4C)nc(-n4ccnc4)c3C#N)C2)C1 [Compound I-31, (S)-4-(2-acryloyl-2,6-diazaspiro[3.4]octan-6-yl)-6-(1H-imidazol-1-yl)-2-((1-methylpyrrolidin-2-yl)methoxy)pyrimidine-5-carbonitrile] | + (+ indicates binding activity greater than 0% and up to 50%) |
| C=CC(=O)N1CC2(CCN(c3nc(N4CCC5(CCN(C)CC5)C4)nc(-c4c(C)ccc5[nH]ncc45)c3C#N)C2)C1 [Compound I-32, 4-(2-acryloyl-2,6-diazaspiro[3.4]octan-6-yl)-6-(5-methyl-1H-indazol-4-yl)-2-(8-methyl-2,8-diazaspiro[4.5]decan-2-yl)pyrimidine-5-carbonitrile] | ++ (++ indicates binding activity from 50 to 85%) |
| C=CC(=O)N1CC2(CCN(c3nc(N4CCOCC4)nc(-c4c(C)ccc5[nH]nc(N)c45)c3C#N)C2)C1 [Compound I-33, 4-(2-acryloyl-2,6-diazaspiro[3.4]octan-6-yl)-6-(3-amino-5-methyl-1H-indazol-4-yl)-2-morpholinopyrimidine-5-carbonitrile] | +++ (+++ indicates binding activity greater than 85%) |
| C=CC(=O)N1CC2(CCN(c3nc(N4CCCC4)nc(-c4c(C)ccc5[nH]nc(N)c45)c3C#N)C2)C1 [Compound I-34, 4-(2-acryloyl-2,6-diazaspiro[3.4]octan-6-yl)-6-(3-amino-5-methyl-1H-indazol-4-yl)-2-(pyrrolidin-1-yl)pyrimidine-5-carbonitrile] | +++ (+++ indicates binding activity greater than 85%) |
| C=CC(=O)N1CC2(CCN(c3nc(OC[C@@H]4CCCN4C)nc(-c4cnn(CCO)c4)c3C#N)C2)C1 [Compound I-35, (S)-4-(2-acryloyl-2,6-diazaspiro[3.4]octan-6-yl)-6-(1-(2-hydroxyethyl)-1H-pyrazol-4-yl)-2-((1-methylpyrrolidin-2-yl)methoxy)pyrimidine-5-carbonitrile] | + (+ indicates binding activity greater than 0% and up to 50%) |
| C=CC(=O)N1CC2(CCN(c3nc(OC[C@@H]4CCCN4C)nc(Nc4ccccc4C(N)=O)c3C#N)C2)C1 [Compound I-36, (S)-2-((6-(2-acryloyl-2,6-diazaspiro[3.4]octan-6-yl)-5-cyano-2-((1-methylpyrrolidin-2-yl)methoxy)pyrimidin-4-yl)amino)benzamide] | + (+ indicates binding activity greater than 0% and up to 50%) |
| C=CC(=O)N1CC2(CCN(c3nc(OC[C@@H]4CCN(C)C4)nc(-c4c(C)ccc5[nH]ncc45)c3C#N)C2)C1 [Compound I-37, 4-(2-acryloyl-2,6-diazaspiro[3.4]octan-6-yl)-6-(5-methyl-1H-indazol-4-yl)-2-(((R)-1-methylpyrrolidin-3-yl)methoxy)pyrimidine-5-carbonitrile] | + (+ indicates binding activity greater than 0% and up to 50%) |
| C=CC(=O)N1CC2(CCN(c3nc(OC[C@@H]4CCCN4C)nc(-n4cnc5ccccc54)c3C#N)C2)C1 [Compound I-38, (S)-4-(2-acryloyl-2,6-diazaspiro[3.4]octan-6-yl)-6-(1H-benzo[d]imidazol-1-yl)-2-((1-mehtylpyrrolidin-2-yl)methoxy)pyrimidine-5-carbonitrile] | + (+ indicates binding activity greater than 0% and up to 50%) |
| C=CC(=O)N1CC2(CCN(c3nc(N4CC5CN(C)CC5C4)nc(-c4c(C)ccc5[nH]ncc45)c3C#N)C2)C1 (stereo not drawn) [Compound I-39, 4-(2-acryloyl-2,6-diazaspiro[3.4]octan-6-yl)-6-(5-methyl-1H-indazol-4-yl)-2-(5-methylhexahydropyr-rolo[3,4-c]pyrrol-2(1H)-yl)pyrimidine-5-carbonitrile] | + (+ indicates binding activity greater than 0% and up to 50%) |
| C=CC(=O)N1CC2(CCN(c3nc(N4CCC5CCN(C)C5C4)nc(-c4c(C)ccc5[nH]ncc45)c3C#N)C2)C1 (stereo not drawn) [Compound I-40, 4-(2-acryloyl-2,6-diazaspiro[3.4]octan-6-yl)-6-(5-methyl-1H-indazol-4-yl)-2-(1-methyloctahydro-6H-pyrrolo[2,3-c]pyridin-6-yl)pyrimidine-5-carbonitrile] | +++ (+++ indicates binding activity greater than 85%) |
| C=CC(=O)N1CC2(CCN(c3nc(NC(=O)c4ccccn4)nc(-c4c(C)ccc5[nH]ncc45)c3C#N)C2)C1 [Compound I-41, N-(4-(2-acryloyl-2,6-diazaspiro[3.4]octan-6-yl)-5-cyano-6-(5-methyl-1H-indazol-4-yl)pyrimidin-2-yl)picolinamide] | +++ (+++ indicates binding activity greater than 85%) |
| C=CC(=O)N1CC2(CCN(c3nc(OC4CCN(C)CC4)nc(-c4c(C)ccc5[nH]ncc45)c3C#N)C2)C1 [Compound I-43, 4-(2-acryloyl-2,6-diazaspiro[3.4]octan-6-yl)-6-(5-methyl-1H-indazol-4-yl)-2-((1-methylpiperidin-4-yl)oxy)pyrimidine-5-carbonitrile] | +++ (+++ indicates binding activity greater than 85%) |
| C=CC(=O)N1CC2(CCN(c3nc(OC[C@@H]4CCCN4C)nc(Nc4cccc(C(N)=O)c4)c3C#N)C2)C1 [Compound I-44, (S)-3-((6-(2-acryloyl-2,6-diazaspiro[3.4]octan-6-yl)-5-cyano-2-((1-methylpyrrolidin-2-yl)methoxy)pyrimidin-4-yl)amino)benzamide] | + (+ indicates binding activity greater than 0% and up to 50%) |
| C=CC(=O)N1CC2(CCN(c3nc(OC[C@@H]4CCCN4C)nc(-c4c(F)cccc4C(N)=O)c3C#N)C2)C1 [Compound I-45, 2-(6-(2-acryloyl-2,6-diazaspiro[3.4]octan-6-yl)-5-cyano-2-(((S)-1-methylpyrrolidin-2-yl)methoxy)pyrimidin-4-yl)-3-fluorobenzamide] | + (+ indicates binding activity greater than 0% and up to 50%) |
| C=CC(=O)N1CC2(CCN(c3nc(N4CC5CCN(C)CC5C4)nc(-c4c(C)ccc5[nH]ncc45)c3C#N)C2)C1 (stereo not drawn) [Compound I-46, 4-(2-acryloyl-2,6-diazaspiro[3.4]octan-6-yl)-6-(5-methyl-1H-indazol-4-yl)-2-(5-methyloctahydro-2H-pyrrolo[3,4-c]pyridin-2-yl)pyrimidine-5-carbonitrile] | +++ (+++ indicates binding activity greater than 85%) |
| C=CC(=O)N1CC2(CCN(c3nc(N4CC5CCC(C4)N5C)nc(-c4c(C)ccc5[nH]ncc45)c3C#N)C2)C1 [Compound I-47, 4-(2-acryloyl-2,6-diazaspiro[3.4]octan-6-yl)-6-(5-methyl-1H-indazol-4-yl)-2-(8-methyl-3,8-diazabicyclo[3.2.1]oc-tan-3-yl)pyrimidine-5-carbonitrile] | +++ (+++ indicates binding activity greater than 85%) |
| C=CC(=O)N1CC2(CCN(c3nc(OCCc4ccccn4)nc(-c4c(C)ccc5[nH]ncc45)c3C#N)CC2)C1 [Compound I-75, 4-(2-acryloyl-2,7-diazaspiro[3.5]nonan-7-yl)-6-(5-methyl-1H-indazol-4-yl)-2-(2-(pyridin-2-yl)ethoxy)pyrimidine-5-carbonitrile] | ++ (++ indicates binding activity from 50 to 85%) |
| C=CC(=O)N1CC2(CCN(c3nc(N4CCOCC4)nc(-c4c(C)ccc5[nH]ncc45)c3C#N)C2)C1 [Compound I-76, 4-(2-acryloyl-2,6-diazaspiro[3.4]octan-6-yl)-6-(5-methyl-1H-indazol-4-yl)-2-morpholinopyrimidine-5-carbonitrile] | ++ (++ indicates binding activity from 50 to 85%) |
